Measured values as given in patent US20090018134A1, “Compounds - 945” (AstraZeneca AB, priority 2007, published 2009).
Where two headings read alike, the source gives them in different places.

Target: T1, mTOR (Homo sapiens, UniProt P42345)
T1 construct: FLAG; made in house
Experiment: In Vitro mTOR Kinase Assay (Echo), Test (a)(ii)
Format: biochemical
Procedure, shortened: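 Inhibition expressed as IC50 from an AlphaScreen read-out: phospho-T389 p70 S6K antibody plus streptavidin donor/protein A acceptor beads, left overnight in the dark. The kinase reaction ran 2 h at room temperature, then was stopped with EDTA. Enzyme: FLAG-purified mTOR 1362-2549 fragment from stable HEK293 cells.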

[1] = table of enzyme assay Test (a)(ii), read-out: Test (a)(ii) IC50
[2] = read-out: mTOR Kinase Assay (Echo)

T1 sequence (P42345 1362-2549): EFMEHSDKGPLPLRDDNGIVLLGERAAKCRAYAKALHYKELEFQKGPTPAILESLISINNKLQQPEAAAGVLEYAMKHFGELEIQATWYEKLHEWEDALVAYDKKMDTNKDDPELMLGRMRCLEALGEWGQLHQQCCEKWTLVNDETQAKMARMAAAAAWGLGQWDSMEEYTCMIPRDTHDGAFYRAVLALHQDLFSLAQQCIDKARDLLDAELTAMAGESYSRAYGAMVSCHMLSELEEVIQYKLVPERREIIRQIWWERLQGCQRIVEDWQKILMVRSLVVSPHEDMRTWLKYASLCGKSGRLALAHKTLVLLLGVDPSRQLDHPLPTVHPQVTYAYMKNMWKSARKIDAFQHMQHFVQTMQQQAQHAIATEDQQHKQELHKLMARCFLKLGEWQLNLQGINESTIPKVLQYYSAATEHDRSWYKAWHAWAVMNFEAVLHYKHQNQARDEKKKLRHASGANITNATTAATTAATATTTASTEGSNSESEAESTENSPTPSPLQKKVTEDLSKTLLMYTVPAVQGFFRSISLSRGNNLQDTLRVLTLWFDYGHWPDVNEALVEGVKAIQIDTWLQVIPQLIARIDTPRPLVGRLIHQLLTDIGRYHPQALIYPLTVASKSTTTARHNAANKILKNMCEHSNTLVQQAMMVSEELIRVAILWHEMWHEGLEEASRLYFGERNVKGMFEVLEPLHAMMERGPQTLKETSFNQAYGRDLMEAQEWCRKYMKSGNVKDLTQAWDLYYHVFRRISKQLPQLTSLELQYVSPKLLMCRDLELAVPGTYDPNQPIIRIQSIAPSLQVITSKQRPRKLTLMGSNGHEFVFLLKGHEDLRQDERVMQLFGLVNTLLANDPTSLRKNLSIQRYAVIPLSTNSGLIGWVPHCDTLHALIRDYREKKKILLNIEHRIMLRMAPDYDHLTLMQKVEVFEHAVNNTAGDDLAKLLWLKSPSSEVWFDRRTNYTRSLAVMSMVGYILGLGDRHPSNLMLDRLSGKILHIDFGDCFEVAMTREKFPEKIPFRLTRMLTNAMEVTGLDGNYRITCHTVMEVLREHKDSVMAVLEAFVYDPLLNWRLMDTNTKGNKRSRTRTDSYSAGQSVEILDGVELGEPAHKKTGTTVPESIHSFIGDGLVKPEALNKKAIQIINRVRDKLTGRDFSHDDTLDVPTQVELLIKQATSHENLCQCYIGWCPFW

Structure (SMILES) | IC50 [1] [nM] | IC50 [2] [nM]
C[C@H]1COCCN1c1cc(C2(S(=O)(=O)c3ccccn3)CCC2)nc(-c2ccc(NC(=O)NC3CC3)cc2)n1 [Example 36af, 3-cyclopropyl-1-[4-[4-[(3S)-3-methylmorpholin-4-yl]-6-(1-pyridin-2-ylsulfonylcyclobutyl)pyrimidin-2-yl]phenyl]urea] | 2.75 | –
C[C@H]1COCCN1c1cc(C2(S(=O)(=O)c3ccccc3Cl)CC2)nc(-c2ccc(NC(=O)Nc3cnn(C)c3)cc2)n1 [Example 76f, 1-[4-[4-[1-(2-chlorophenyl)sulfonylcyclopropyl]-6-[(3S)-3-methylmorpholin-4-yl]pyrimidin-2-yl]phenyl]-3-(1-methylpyrazol-4-yl)urea] | 6.78 | –
C[C@H]1COCCN1c1cc(C2(S(=O)(=O)c3ccccn3)CC2)nc(-c2ccc(NC(=O)NC(C)(C)CO)cc2)n1 [Example 28j, 3-(1-hydroxy-2-methylpropan-2-yl)-1-[4-[4-[(3S)-3-methylmorpholin-4-yl]-6-(1-pyridin-2-ylsulfonylcyclopropyl)pyrimidin-2-yl]phenyl]urea] | 5.57 | –
C[C@H]1COCCN1c1cc(C2(S(=O)(=O)C3CC3)CC2)nc(-c2ccc(NC(=O)NCC(F)F)cc2)n1 [Example 64u, 1-[4-[4-(1-cyclopropylsulfonylcyclopropyl)-6-[(3S)-3-methylmorpholin-4-yl]pyrimidin-2-yl]phenyl]-3-(2,2-difluoroethyl)urea] | 13.9 | –
CCCNC(=O)Nc1ccc(-c2nc(N3CCOC[C@@H]3C)cc(C3(S(=O)(=O)c4ccc(Cl)cc4)CC3)n2)cc1 [Example 27i, 3-[4-[4-[1-(4-chlorophenyl)sulfonylcyclopropyl]-6-[(3S)-3-methylmorpholin-4-yl]pyrimidin-2-yl]phenyl]-1-propylurea] | 3.02 | –
CN(C)C(=O)C1(c2cc(N3CCOCC3)nc(-c3ccc(NC(=O)NCCO)cc3)n2)CC1 [Example 34, 1-[2-[4-(2-Hydroxyethylcarbamoylamino)phenyl]-6-morpholin-4-ylpyrimidin-4-yl]-N,N-dimethylcyclopropane-1-carboxamide] | 4.05 | –
C[C@H]1COCCN1c1cc(C2(S(=O)(=O)C3CC3)CCC2)nc(-c2ccc(NC(=O)NCc3ncc[nH]3)cc2)n1 [Example 36i, 1-[4-[4-(1-cyclopropylsulfonylcyclobutyl)-6-[(3S)-3-methylmorpholin-4-yl]pyrimidin-2-yl]phenyl]-3-(1H-imidazol-2-ylmethyl)urea] | 51.8 | –
C[C@H]1COCCN1c1cc(C2(S(=O)(=O)c3ccc(F)cc3F)CC2)nc(-c2ccc(NC(=O)Nc3cnn(C)c3)cc2)n1 [Example 57f, 1-[4-[4-[1-(2,4-difluorophenyl)sulfonylcyclopro-pyl]-6-[(3S)-3-methylmorpholin-4-yl]pyrimidin-2-yl]phenyl]-3-(1-methylpyrazol-4-yl)urea] | 10.6 | –
C[C@H]1COCCN1c1cc(C2(S(=O)(=O)c3ccncc3)CC2)nc(-c2ccc(NC(=O)Nc3cnn(C)c3)cc2)n1 [Example 6l, 1-[4-[4-[(3S)-3-methylmorpholin-4-yl]-6-(1-pyridin-4-ylsulfonylcyclopropyl)pyrimidin-2-yl]phenyl]-3-(1-methylpyrazol-4-yl)urea] | – | 1.19
C[C@H]1COC[C@H](C)N1c1cc(C2(S(=O)(=O)C3CC3)CC2)nc(-c2ccc(NC(=O)NC3CC3)cc2)n1 [Example 92, 3-Cyclopropyl-1-[4-[4-(1-cyclopropylsulfonylcyclopropyl)-6-[(3S,5S)-3,5-dimethylmorpholin-4-yl]pyrimidin-2-yl]phenyl]urea] | 7.93 | –
C[C@H]1COCCN1c1cc(C2(S(=O)(=O)C3CC3)CC2)nc(-c2ccc(NC(=O)NC3CCC3)cc2)n1 [Example 3a, 3-cyclobutyl-1-[4-[4-(1-cyclopropylsulfonylcyclopropyl)-6-[(3S)-3-methylmorpholin-4-yl]pyrimidin-2-yl]phenyl]urea] | – | 4.45
C[C@H]1COCCN1c1cc(C2(S(C)(=O)=O)CC2)nc(-c2ccc(NC(=O)Nc3ncns3)cc2)n1 [Example 2ae, 1-[4-[4-[(3S)-3-methylmorpholin-4-yl]-6-(1-methylsulfonylcyclopropyl)pyrimidin-2-yl]phenyl]-3-(1,2,4-thiadiazol-5-yl)urea] | – | 0.72
C[C@H]1COCCN1c1cc(C2(S(=O)(=O)c3ccccc3)CC2)nc(-c2ccc(NC(=O)NCC(F)(F)F)cc2)n1 [Example 36ea, 1-[4-[4-[1-(benzenesulfonyl)cyclopropyl]-6-[(3S)-3-methylmorpholin-4-yl]pyrimidin-2-yl]phenyl]-3-(2,2,2-trifluroethyl)urea] | 8.84 | –
CCS(=O)(=O)C1(c2cc(N3CCOC[C@@H]3C)nc(-c3ccc(NC(=O)N[C@H](C)CO)cc3)n2)CCC1 [Example 87f, 1-[4-[4-(1-ethylsulfonylcyclobutyl)-6-[(3S)-3-methylmorpholin-4-yl]pyrimidin-2-yl]phenyl]-3-[(2R)-1-hydroxypropan-2-yl]urea] | 9.07 | –
C[C@H]1COCCN1c1cc(C2(S(=O)(=O)c3ccccc3)CC2)nc(-c2ccc(NC(=O)NCc3ncc[nH]3)cc2)n1 [Example 36bn, 1-[4-[4-[1-(benzenesulfonyl)cyclopropyl]-6-[(3S)-3-methylmorpholin-4-yl]pyrimidin-2-yl]phenyl]-3-(1H-imidazol-2-ylmethyl)urea] | 6.37 | –
C[C@H]1COCCN1c1cc(C2(S(=O)(=O)c3c(F)cccc3F)CC2)nc(-c2ccc(NC(=O)NC3CC3)cc2)n1 [Example 86b, 3-cyclopropyl-1-[4-[4-[1-(2,6-difluorophenyl)sulfonylcyclopropyl]-6-[(3S)-3-methylmorpholin-4-yl]pyrimidin-2-yl]phenyl]urea] | 7.25 | –
C[C@H]1COCCN1c1cc(C2(S(=O)(=O)c3ccccc3)CC2)nc(-c2ccc(NC(=O)N3CCC(O)C3)cc2)n1 (stereo partly drawn) [Example 36do, N-[4-[4-[1-(benzenesulfonyl)cyclopropyl]-6-[(3S)-3-methylmorpholin-4-yl]pyrimidin-2-yl]phenyl]-3-hydroxypyrrolidine-1-carboxamide] | 27.7 | –
C[C@H]1COCCN1c1cc(C2(S(=O)(=O)C3CC3)CC2)nc(-c2ccc(NC(=O)NCCN(C)C)nc2)n1 [Example 14b, 1-[5-[4-(1-cyclopropylsulfonylcyclopropyl)-6-[(3S)-3-methylmorpholin-4-yl]pyrimidin-2-yl]pyridin-2-yl]-3-(2-dimethylaminoethyl)urea] | 1390 | –
CCS(=O)(=O)C1(c2cc(N3CCOC[C@@H]3C)nc(-c3ccc(NC(=O)NCCO)cc3)n2)CC1 [Example 11e, 1-[4-[4-(1-ethylsulfonylcyclopropyl)-6-[(3S)-3-methylmorpholin-4-yl]pyrimidin-2-yl]phenyl]-3-(2-hydroxyethyl)urea] | 1.97 | 1.35
C[C@H]1COCCN1c1cc(C2(S(C)(=O)=O)CCC2)nc(-c2ccc(NC(=O)Nc3cnn(C)c3)cc2)n1 [Example 5m, 1-[4-[4-[(3S)-3-methylmorpholin-4-yl]-6-(1-methylsulfonylcyclobutyl)pyrimidin-2-yl]phenyl]-3-(1-methylpyrazol-4-yl)urea] | 0.604 | 0.69
C[C@H]1COCCN1c1cc(C2(S(=O)(=O)C3CC3)CCC2)nc(-c2ccc(NC(=O)NCCO)cc2)n1 [Example 36f, 1-[4-[4-(1-cyclopropylsulfonylcyclobutyl)-6-[(3S)-3-methylmorpholin-4-yl]pyrimidin-2-yl]phenyl]-3-(2-hydroxyethyl)urea] | 2.78 | –
C[C@H]1COCCN1c1cc(C2(S(=O)(=O)c3ccccc3)CC2)nc(-c2ccc(NC(=O)NCCC#N)cc2)n1 [Example 36bm, 1-[4-[4-[1-(benzenesulfonyl)cyclopropyl]-6-[(3S)-3-methylmorpholin-4-yl]pyrimidin-2-yl]phenyl]-3-(2-cyanoethyl)urea] | 1.93 | –
Cc1nc(S(=O)(=O)C2(c3cc(N4CCOC[C@@H]4C)nc(-c4ccc(NC(=O)NCC(F)F)cc4)n3)CC2)sc1C [Example 80, 3-(2,2-Difluoroethyl)-1-[4-[4-[1-[(4,5-dimethyl-1,3-thiazol-2-yl)sulfonyl]cyclopropyl]-6-[(3S)-3-methylmorpholin-4-yl]pyrimidin-2-yl]phenyl]urea] | 19.7 | –
Cc1noc(C)c1S(=O)(=O)C1(c2cc(N3CCOC[C@@H]3C)nc(-c3ccc(NC(=O)NCC(F)F)cc3)n2)CC1 [Example 59d, 3-(2,2-difluoroethyl)-1-[4-[4-[1-[(3,5-dimethyl-1,2-oxazol-4-yl)sulfonyl]cyclopropyl]-6-[(3S)-3-methylmorpholin-4-yl]pyrimidin-2-yl]phenyl]urea] | 32 | –
CNC(=O)Nc1ccc(-c2nc(N3[C@@H](C)COC[C@@H]3C)cc(C3(S(C)(=O)=O)CC3)n2)cc1 [Example 91a, 1-[4-[4-[(3S,5S)-3,5-dimethylmorpholin-4-yl]-6-(1-methylsulfonylcyclopropyl)pyrimidin-2-yl]phenyl]-3-methylurea] | 1.98 | –
C[C@H]1COCCN1c1cc(C2(S(=O)(=O)C3CC3)CC2)nc(-c2cnc(NC(=O)Nc3cnn(C)c3)nc2)n1 [Example 14z, 1-[5-[4-(1-cyclopropylsulfonylcyclopropyl)-6-[(3S)-3-methylmorpholin-4-yl]pyrimidin-2-yl]pyrimidin-2-yl]-3-(1-methylpyrazol-4-yl)urea] | 171 | –
Cc1nc(S(=O)(=O)C2(c3cc(N4CCOC[C@@H]4C)nc(-c4ccc(NC(=O)NCCO)cc4)n3)CC2)sc1C [Example 80c, 1-[4-[4-[1-[(4,5-dimethyl-1,3-thiazol-2-yl)sulfonyl]cyclopropyl]-6-[(3S)-3-methylmorpholin-4-yl]pyrimidin-2-yl]phenyl]-3-(2-hydroxyethyl)urea] | 9.21 | –
C[C@H]1COCCN1c1cc(C2(S(=O)(=O)c3ccccn3)CCCC2)nc(-c2ccc(NC(=O)NCCCO)cc2)n1 [Example 36ae, 3-(3-hydroxypropyl)-1-[4-[4-[(3S)-3-methylmorpholin-4-yl]-6-(1-pyridin-2-ylsulfonylcyclopentyl)pyrimidin-2-yl]phenyl]urea] | 15.1 | –
